Laboratory results taken from PMC10004417, “Screening of Potential α-Glucosidase Inhibitors from the Roots and Rhizomes of Panax Ginseng by Affinity Ultrafiltration Screening Coupled with UPLC-ESI-Orbitrap-MS Method” (Molecules, 2023).
Read-outs that look alike come from different tables or passages of the source. One block for each molecule: values may come before it.

What was measured:
Assay in all cases: pNPG enzyme inhibition assay, % inhibition at […]; also affinity ultrafiltration LC-MS (PAR […])
Assay type in all cases: biochemical
Conditions in all cases: read-out: Inhibitory (%)
α-Glucosidase [1] = molecular target: T1, α-Glucosidase (Saccharomyces cerevisiae, UniProt P53341)
T1 construct: gene MAL12
T1 sequence (P53341 whole entry): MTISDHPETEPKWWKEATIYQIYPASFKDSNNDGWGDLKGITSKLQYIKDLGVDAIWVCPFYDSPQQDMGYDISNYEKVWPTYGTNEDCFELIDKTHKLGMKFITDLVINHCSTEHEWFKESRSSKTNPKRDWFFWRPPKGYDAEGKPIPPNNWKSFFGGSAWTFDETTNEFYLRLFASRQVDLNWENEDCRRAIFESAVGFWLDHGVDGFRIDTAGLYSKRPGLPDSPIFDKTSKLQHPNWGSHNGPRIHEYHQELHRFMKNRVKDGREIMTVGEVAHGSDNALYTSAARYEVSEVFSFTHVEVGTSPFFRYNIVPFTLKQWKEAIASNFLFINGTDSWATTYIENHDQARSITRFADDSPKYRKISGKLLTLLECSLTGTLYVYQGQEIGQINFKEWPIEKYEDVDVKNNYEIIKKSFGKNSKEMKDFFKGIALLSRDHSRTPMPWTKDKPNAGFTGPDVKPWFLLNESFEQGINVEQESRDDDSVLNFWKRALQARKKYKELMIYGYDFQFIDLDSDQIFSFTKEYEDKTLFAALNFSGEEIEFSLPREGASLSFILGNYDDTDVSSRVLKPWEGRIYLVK

α-Glucosidase [2] = molecular target: T1, α-Glucosidase; remark: listed apart in the source
α-Glucosidase [3] = molecular target: T1, α-Glucosidase; remark: listed apart in the source

SMILES: C=C(CCC=C(C)C)[C@H]1CC[C@]2(C)C1[C@H](O)CC1[C@@]3(C)CC[C@H](O)C(C)(C)C3[C@@H](OC3O[C@H](CO)[C@@H](O)[C@H](O)[C@H]3OC3O[C@@H](C)[C@H](O)[C@@H](O)[C@H]3O)C[C@]12C (stereo partly drawn) [R3, ginsenoside Rg6]
inhibition at 40000 µM (α-Glucosidase [1]): 27.4%

inhibition at 40000 µM (α-Glucosidase [2]): 20.2%
SMILES: CC1(C)CC[C@]2(C(=O)O[C@@H]3O[C@H](CO)[C@@H](O)[C@H](O)[C@H]3O)CC[C@]3(C)C(=CC[C@@H]4[C@@]5(C)CC[C@H](O[C@@H]6O[C@H](C(=O)O)[C@@H](O)[C@H](O)[C@H]6O[C@@H]6O[C@H](CO)[C@@H](O)[C@H](O)[C@H]6O)C(C)(C)[C@@H]5CC[C@]43C)[C@@H]2C1 [R8, ginsenoside Ro]

SMILES: CC(C)=CCC[C@](C)(OC1O[C@H](COC2O[C@@H](CO)[C@H](O)[C@H]2OC2OC[C@@H](O)[C@H](O)[C@H]2O)[C@@H](O)[C@H](O)[C@H]1O)C1CC[C@]2(C)C1[C@H](O)CC1[C@@]3(C)CC[C@H](OC4O[C@H](CO)[C@@H](O)[C@H](O)[C@H]4OC4O[C@H](CO)[C@@H](O)[C@H](O)[C@H]4O)C(C)(C)C3CC[C@]12C (stereo partly drawn) [R11, ginsenoside Ra2]
inhibition at 40000 µM (α-Glucosidase [3]): 29.5%
